Assay results published in patent publication US11999716B2, “WDR5 inhibitors and modulators” (priority 2018, dated 2024).

tested on: MV4:11 human cancer cell lines; test: Cellular viability / anti-proliferative activity, CellTiter-Glo, 5 day protocol; type: cell-based; conditions: Homo sapiens, MV4-11, 120 h, MV4:11 cells; 5 day incubation; CellTiter-Glo; mean of minimum two replicates; read-out: GI50 on cellular proliferation of MV4:11 human cancer cell lines
In short: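 Compounds were tested over 22 two-fold dilutions starting at 30 μM in 0.3% DMSO, with 200 cells per well (7200 cells/mL). Viability was measured by CellTiter-Glo luminescence at day 5.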

| SMILES | GI50 [nM] |
| --- | --- |
| Cc1nccn1Cc1cc2c(c(-c3cn(C)nc3C(F)(F)F)c1)CCN(Cc1ccccn1)C2=O [Example 180, 7-((2-Methyl-1H-imidazol-1-yl)methyl)-5-(1-methyl-3-(trifluoromethyl)-1H-pyrazol-4-yl)-2-(pyridin-2-ylmethyl)-3,4-dihydroisoquinolin-1(2H)-one] | 1590 |
| Cc1ccnc([C@H](C2CC2)N2CCc3c(cc(Cn4ccnc4)cc3-c3ccc(F)cc3C)C2=O)c1 [Example 184, (S)-7-((1H-Imidazol-1-yl)methyl)-2-(cyclopropyl(4-methylpyridin-2-yl)methyl)-5-(4-fluoro-2-methylphenyl)-3,4-dihydroisoquinolin-1(2H)-one] | 125 |
| Cc1cc([C@H](C)N2CCc3c(cc(Cn4ccnc4)cc3-c3cn(C)nc3C(F)(F)F)C2=O)ncc1F [Example 185, (S)-7-((1H-Imidazol-1-yl)methyl)-2-(1-(5-fluoro-4-methylpyridin-2-yl)ethyl)-5-(1-methyl-3-(trifluoromethyl)-1H-pyrazol-4-yl)-3,4-dihydroisoquinolin-1(2H)-one] | < 50 |
| Cc1nnc(CN2CCc3c(cc(Cn4ccnc4C)cc3-c3cn(C)nc3C(F)(F)F)C2=O)o1 [Example 188, 2-((5-Methyl-1,3,4-oxadiazol-2-yl)methyl)-7-((2-methyl-1H-imidazol-1-yl)methyl)-5-(1-methyl-3-(trifluoromethyl)-1H-pyrazol-4-yl)-3,4-dihydroisoquinolin-1(2H)-one] | 730 |
| Cc1cc(CN2CCc3c(cc(Cn4ccnc4C)cc3-c3cn(C)nc3C(F)(F)F)C2=O)on1 [Example 190, 7-((2-Methyl-1H-imidazol-1-yl)methyl)-5-(1-methyl-3-(trifluoromethyl)-1H-pyrazol-4-yl)-2-((3-methylisoxazol-5-yl)methyl)-3,4-dihydroisoquinolin-1(2H)-one] | 349 |
| COc1ccnc([C@H](C)N2CCc3c(cc(Cn4ccnc4C)cc3-c3cccnc3C(F)(F)F)C2=O)c1 [Example 192, (S)-2-(1-(4-Methoxypyridin-2-yl)ethyl)-7-((2-methyl-1H-imidazol-1-yl)methyl)-5-(2-(trifluoromethyl)pyridin-3-yl)-3,4-dihydroisoquinolin-1(2H)-one] | 77 |
| Cc1nccn1Cc1cc2c(c(-c3cn(C)nc3C(F)(F)F)c1)CCN(Cc1cn(C(C)C)c3ccccc13)C2=O [Example 193, 2-((1-Isopropyl-1H-indol-3-yl)methyl)-7-((2-methyl-1H-imidazol-1-yl)methyl)-5-(1-methyl-3-(trifluoromethyl)-1H-pyrazol-4-yl)-3,4-dihydroisoquinolin-1(2H)-one] | 2330 |

Further lines, results first:

| GI50 [nM] | SMILES |
| --- | --- |
| 3460 | Cc1cccnc1CN1CCc2c(cc(Cn3ccnc3C)cc2-c2cn(C)nc2C(F)(F)F)C1=O [Example 181, 7-((2-Methyl-1H-imidazol-1-yl)methyl)-5-(1-methyl-3-(trifluoromethyl)-1H-pyrazol-4-yl)-2-((3-methylpyridin-2-yl)methyl)-3,4-dihydroisoquinolin-1(2H)-one] |
| 591 | CCn1cc(CN2CCc3c(cc(Cn4ccnc4C)cc3-c3cn(C)nc3C(F)(F)F)C2=O)c2ccccc21 [Example 187, 2-((1-Ethyl-1H-indol-3-yl)methyl)-7-((2-methyl-1H-imidazol-1-yl)methyl)-5-(1-methyl-3-(trifluoromethyl)-1H-pyrazol-4-yl)-3,4-dihydroisoquinolin-1(2H)-one] |
| 1000 | Cc1nccn1Cc1cc2c(c(-c3cn(C)nc3C(F)(F)F)c1)CCN(Cc1cn(C)c3ccccc13)C2=O [Example 189, 7-((2-Methyl-1H-imidazol-1-yl)methyl)-2-((1-methyl-1H-indol-3-yl)methyl)-5-(1-methyl-3-(trifluoromethyl)-1H-pyrazol-4-yl)-3,4-dihydroisoquinolin-1(2H)-one] |
| < 50 | CCc1ccnc([C@H](C)N2CCc3c(cc(Cn4ccnc4)cc3-c3cn(C)nc3C(F)(F)F)C2=O)c1 [Example 191, (S)-7-((1H-Imidazol-1-yl)methyl)-2-(1-(4-ethylpyridin-2-yl)ethyl)-5-(1-methyl-3-(trifluoromethyl)-1H-pyrazol-4-yl)-3,4-dihydroisoquinolin-1(2H)-one] |
